From patent US10174067B2, “Type of cytidine derivative and application thereof” (priority 2014, dated 2019)
Marks after values point to notes of the source that are not given here.

Experiments:
[1] = tested on: HCT-116 colon cancer xenografts; test: Tumor growth inhibition of HCT-116 colon cancer xenografts in tumor-bearing nude mice (tumor volume, TGI %, RTV, T/C %); assay type: in vivo, Balb/c Nude mice; conditions: for T/C % (relative tumor proliferation rate): dosage 400 mg/kg (G10-G16 study);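 as to T/C % (relative tumor proliferation rate): control C is the vehicle-treated model control group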
Outline: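 Nude mice inoculated with HCT-116 cells (about 3×10^7 cells/mL in serum-free medium). Tumor diameter measured three times weekly and volume computed as V=3/4π(D/2)^3. Activity expressed as TGI (%) and T/C (%) from relative tumor volume Vt/V0, with V0 taken at grouping and dosing start; P<0.05 significant.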

[2] = Outline: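 Female SPF Balb/c nude mice bearing subcutaneous HCT-116 xenografts (3×10^6 cells, right hind limb), grouped at 60–150 mm^3, 6 per group; vehicle ethanol/Cremophor EL/saline 5:5:90. Body weight thrice weekly; tumours excised and weighed at sacrifice; Mean±SEM, unpaired t-test, P<0.05.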
[3] = Day 0, G10-G16 groups, single IP 400 mg/kg
[4] = Day 0, G10-G16 groups, single IP 400 mg/kg, Mean±SEM
[5] = Day 1, G10-G16 groups, single IP 400 mg/kg, Mean±SEM
[6] = Day 2, G10-G16 groups, single IP 400 mg/kg, Mean±SEM
[7] = Day 4, G10-G16 groups, single IP 400 mg/kg, Mean±SEM
[8] = Day 7, G10-G16 groups, single IP 400 mg/kg, Mean±SEM
[9] = Day 9, G10-G16 groups, single IP 400 mg/kg, Mean±SEM
[10] = Day 11, G10-G16 groups, single IP 400 mg/kg, Mean±SEM
[11] = Day 14, G10-G16 groups, single IP 400 mg/kg, Mean±SEM
[12] = Day 16, G10-G16 groups, single IP 400 mg/kg, Mean±SEM
[13] = Day 18, G10-G16 groups, single IP 400 mg/kg, Mean±SEM
[14] = Day 21, G10-G16 groups, single IP 400 mg/kg, Mean±SEM
[15] = Day 23, G10-G16 groups, single IP 400 mg/kg, Mean±SEM
[16] = Day 25, G10-G16 groups, single IP 400 mg/kg, Mean±SEM
[17] = Day 28, G10-G16 groups, single IP 400 mg/kg, Mean±SEM
[18] = Day 30, G10-G16 groups, single IP 400 mg/kg, Mean±SEM

Which results are given for O=C(COc1nc(Cl)c(Cl)cc1Cl)OC[C@H]1O[C@@H](n2cc(Br)c(NC(=O)OCc3ccccc3)nc2=O)C(F)(F)C1O (stereo partly shown) [Compound G10]?
Day 0 (RTV) [1, 3]: 1.00; Tumor volume, Day 0 [1, 4]: 83.23 ± 12.39 mm^3; T/C % (relative tumor proliferation rate) ([1]; Day 0): 0.00%; Day 1 (TGI %) ([1]; Day 1, G10-G16 groups, single IP 400 mg/kg): 50.51%; Day 1 (RTV) [1, 5]: 1.06 ± 0.12; Tumor volume, Day 1 [1, 5]: 89.33 ± 14.35** mm^3; T/C % (relative tumor proliferation rate) ([1]; Day 1): 63.00%; Day 2 (TGI %) ([1]; Day 2, G10-G16 groups, single IP 400 mg/kg): 51.72%; Day 2 (RTV) [1, 6]: 1.27 ± 0.16; Tumor volume, Day 2 [1, 6]: 108.22 ± 18.22** mm^3; T/C % (relative tumor proliferation rate) ([1]; Day 2): 61.29%; Day 4 (TGI %) ([1]; Day 4, G10-G16 groups, single IP 400 mg/kg): 48.03%; Day 4 (RTV) [1, 7]: 1.83 ± 0.20; Tumor volume, Day 4 [1, 7]: 154.33 ± 27.49** mm^3; T/C % (relative tumor proliferation rate) ([1]; Day 4): 66.28%; Day 7 (TGI %) ([1]; Day 7, G10-G16 groups, single IP 400 mg/kg): 46.09%; Day 7 (RTV) [1, 8]: 2.82 ± 0.25; Tumor volume, Day 7 [1, 8]: 233.13 ± 37.06** mm^3; T/C % (relative tumor proliferation rate) ([1]; Day 7): 69.09%; Day 9 (TGI %) ([1]; Day 9, G10-G16 groups, single IP 400 mg/kg): 33.35%; Day 9 (RTV) [1, 9]: 4.84 ± 0.55; Tumor volume, Day 9 [1, 9]: 393.47 ± 68.53 mm^3; T/C % (relative tumor proliferation rate) ([1]; Day 9): 86.30%; Day 11 (TGI %) ([1]; Day 11, G10-G16 groups, single IP 400 mg/kg): 38.55%; Day 11 (RTV) [1, 10]: 7.60 ± 0.85; Tumor volume, Day 11 [1, 10]: 599.83 ± 84* mm^3; T/C % (relative tumor proliferation rate) ([1]; Day 11): 82.36%; Day 14 (TGI %) ([1]; Day 14, G10-G16 groups, single IP 400 mg/kg): 30.82%; Day 14 (RTV) [1, 11]: 13.37 ± 2.23; Tumor volume, Day 14 [1, 11]: 996.32 ± 91.77* mm^3; T/C % (relative tumor proliferation rate) ([1]; Day 14): 96.62%; Day 16 (TGI %) ([1]; Day 16, G10-G16 groups, single IP 400 mg/kg): 24.07%; Day 16 (RTV) [1, 12]: 18.63 ± 3.27; Tumor volume, Day 16 [1, 12]: 1375.20 ± 109.23* mm^3; T/C % (relative tumor proliferation rate) ([1]; Day 16): 107.93%; Day 18 (TGI %) ([1]; Day 18, G10-G16 groups, single IP 400 mg/kg): 18.11%; Day 18 (RTV) [1, 13]: 22.45 ± 4.24; Tumor volume, Day 18 [1, 13]: 1636.39 ± 114.98 mm^3; T/C % (relative tumor proliferation rate) ([1]; Day 18): 117.59%; Day 21 (TGI %) ([1]; Day 21, G10-G16 groups, single IP 400 mg/kg): 14.51%; Day 21 (RTV) [1, 14]: 29.09 ± 6.00; Tumor volume, Day 21 [1, 14]: 2090.18 ± 124.45 mm^3; T/C % (relative tumor proliferation rate) ([1]; Day 21): 124.28%; Day 23 (TGI %) ([1]; Day 23, G10-G16 groups, single IP 400 mg/kg): 10.21%; Day 23 (RTV) [1, 15]: 29.56 ± 5.99; Tumor volume, Day 23 [1, 15]: 2120.63 ± 111.71 mm^3; T/C % (relative tumor proliferation rate) ([1]; Day 23): 149.49%; Day 25 (TGI %) ([1]; Day 25, G10-G16 groups, single IP 400 mg/kg): 11.18%; Day 25 (RTV) [1, 16]: 31.95 ± 6.61; Tumor volume, Day 25 [1, 16]: 2293.73 ± 132.31 mm^3; T/C % (relative tumor proliferation rate) ([1]; Day 25): 147.80%; Day 28 (TGI %) ([1]; Day 28, G10-G16 groups, single IP 400 mg/kg): 10.61%; Day 28 (RTV) [1, 17]: 35.86 ± 7.35; Tumor volume, Day 28 [1, 17]: 2404.00 ± 127.93 mm^3; T/C % (relative tumor proliferation rate) ([1]; Day 28): 169.72%; Day 30 (TGI %) ([1]; Day 30, G10-G16 groups, single IP 400 mg/kg): 10.17%; Day 30 (RTV) [1, 18]: 40.27 ± 10.35; Tumor volume, Day 30 [1, 18]: 2520.69 ± 108.41 mm^3; T/C % (relative tumor proliferation rate) ([1]; Day 30): 162.31%; Weight change rate, Day 0 [2, 3]: 0.00%; Weight of mice, Day 0 [2, 4]: 19.90 ± 0.17 g; Weight change rate, Day 1 [2, 5]: −1.76 ± 0.49%; Weight of mice, Day 1 [2, 5]: 19.55 ± 0.21 g; Weight change rate, Day 2 [2, 6]: −0.85 ± 0.43%; Weight of mice, Day 2 [2, 6]: 19.73 ± 0.25 g; Weight change rate, Day 4 [2, 7]: 1.94 ± 0.91 %; Weight of mice, Day 4 [2, 7]: 20.28 ± 0.19 g; Weight change rate, Day 7 [2, 8]: 0.61 ± 0.70 %; Weight of mice, Day 7 [2, 8]: 20.02 ± 0.09 g; Weight change rate, Day 9 [2, 9]: 3.04 ± 1.24 %; Weight of mice, Day 9 [2, 9]: 20.50 ± 0.24 g; Weight change rate, Day 11 [2, 10]: 2.77 ± 1.51%; Weight of mice, Day 11 [2, 10]: 20.45 ± 0.32 g; Weight change rate, Day 14 [2, 11]: −1.53 ± 2.52%; Weight of mice, Day 14 [2, 11]: 19.60 ± 0.57 g; Weight change rate, Day 16 [2, 12]: −2.19 ± 3.22%; Weight of mice, Day 16 [2, 12]: 19.47 ± 0.68 g; Weight change rate, Day 18 [2, 13]: −1.80 ± 3.13%; Weight of mice, Day 18 [2, 13]: 19.55 ± 0.70 g; Weight change rate, Day 21 [2, 14]: −2.23 ± 3.14%; Weight of mice, Day 21 [2, 14]: 19.47 ± 0.72 g; Day 22 Mortality ([2]; Day 22, single IP dose (mg/kg)): 0%; Weight change rate, Day 23 [2, 15]: −2.41 ± 3.42%; Weight of mice, Day 23 [2, 15]: 19.43 ± 0.78 g; Weight change rate, Day 25 [2, 16]: −1.80 ± 3.06%; Weight of mice, Day 25 [2, 16]: 19.55 ± 0.69 g; Weight change rate, Day 28 [2, 17]: −1.77 ± 2.66%; Weight of mice, Day 28 [2, 17]: 19.54 ± 0.67 g; Weight change rate, Day 30 [2, 18]: −1.95 ± 3.04%; Weight of mice, Day 30 [2, 18]: 19.55 ± 0.79 g; clinical symptoms ([2]; after single IP dose, compared with model control group): no significant differences in clinical symptoms
